# Test results taken from ChEMBL document CHEMBL4177663, “Discovery and structure-activity relationship study of 1,3,6-trisubstituted 1,4-diazepane-7-ones as novel human kallikrein 7 inhibitors” (Bioorg Med Chem Lett, 2017).
# How the values were obtained:
# Kallikrein-7 = Kallikrein-7 (Homo sapiens, UniProt P49862); assay: Inhibition of thermolysin activated recombinant human C-terminal 10-His tagged KLK7 preincubated for 10 mins followed by MOCAc-Arg-Pro-Lys-Pro-Val-Glu-Nva-Trp-Arg-Lys(Dnp)-NH2 peptide substrate addition measured after 30 mins by fluorescence analysis
# Chain of Kallikrein-7 (P49862 whole entry): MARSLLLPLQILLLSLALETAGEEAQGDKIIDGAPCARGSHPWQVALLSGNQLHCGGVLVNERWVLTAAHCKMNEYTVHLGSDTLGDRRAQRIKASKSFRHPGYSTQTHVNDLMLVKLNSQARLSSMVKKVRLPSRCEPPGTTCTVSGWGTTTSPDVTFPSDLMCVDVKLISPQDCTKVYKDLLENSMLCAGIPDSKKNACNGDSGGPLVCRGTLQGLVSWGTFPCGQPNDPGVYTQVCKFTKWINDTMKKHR
# Kallikrein-5 = molecular target: T1, Kallikrein-5 (Homo sapiens, UniProt Q9Y337); assay: Inhibition of recombinant human C-terminal 10-His tagged KLK5 preincubated for 10 mins followed by Boc-Val-Pro-Arg-MCA peptide substrate addition measured after 30 mins by fluorescence analysis
# T1 sequence (Q9Y337 whole entry): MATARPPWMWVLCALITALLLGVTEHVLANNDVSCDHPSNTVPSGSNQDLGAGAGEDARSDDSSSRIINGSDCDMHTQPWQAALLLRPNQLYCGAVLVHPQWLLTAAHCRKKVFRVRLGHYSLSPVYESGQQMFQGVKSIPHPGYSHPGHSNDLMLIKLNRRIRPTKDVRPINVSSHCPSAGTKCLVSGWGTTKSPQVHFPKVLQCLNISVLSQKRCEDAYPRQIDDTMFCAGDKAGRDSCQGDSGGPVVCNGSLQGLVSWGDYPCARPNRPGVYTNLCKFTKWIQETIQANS
# Trypsin = Trypsin (Homo sapiens, UniProt P07477+P07478+P35030); assay: Inhibition of human trypsin preincubated for 10 mins followed by Boc-Gln-Ala-Arg-MCA peptide substrate addition measured after 30 mins by fluorescence analysis; assay type: protein assay
# [1] = Inhibition of human chymotrypsin preincubated for 10 mins followed by Suc-Ala-Ala-Pro-Phe-MCA peptide substrate addition measured after 30 mins by fluorescence analysis
IC50 (Kallikrein-7) [µM],IC50 (Kallikrein-5) [µM],IC50 (Trypsin) [µM],IC50 [1] [µM],SMILES
1.9,> 30,> 30,30,COc1ccc(Cl)cc1C[C@@H]1CN/C(=N\N(C)C)CN(CC(=O)Nc2cccc(C(=O)O)c2)C1=O.Cl
> 30,–,–,–,COc1ccc(Cl)cc1C[C@@H]1CN/C(=N\OCC(C)C)CN(CC(=O)Nc2cccc(C(=O)O)c2)C1=O
4.5,–,–,–,COc1ccc(Cl)cc1C[C@@H]1CN/C(=N\N(C)C)CN(CC(=O)Nc2ccccc2)C1=O
5.8,–,–,–,COc1ccc(Cl)cc1C[C@@H]1CN/C(=N\Oc2cc(F)cc(F)c2)CN(CC(=O)Nc2ccc(O)c(C(=O)O)c2)C1=O
16,–,–,–,COc1ccc(Cl)cc1C[C@@H]1CN/C(=N\N(C)C)CN(CC(=O)Nc2ccccn2)C1=O
14,–,–,–,CO/N=C1/CN(CC(=O)Nc2cccc(C(=O)O)c2)C(=O)[C@H](Cc2cc(Cl)ccc2OC)CN1
> 30,–,–,–,COc1ccc(Cl)cc1C[C@@H]1CN/C(=N\O)CN(CC(=O)Nc2cccc(C(=O)O)c2)C1=O
9,–,–,–,COc1ccc(Cl)cc1C[C@@H]1CN/C(=N\N(C)C)CN(CC(=O)Nc2cccnc2)C1=O
0.82,> 30,> 30,24,COc1ccc(Cl)cc1C[C@@H]1CN/C(=N\N(C)C)CN(CC(=O)Nc2cccc(S(C)(=O)=O)c2)C1=O
> 30,–,–,–,COc1ccc(Cl)cc1C[C@@H]1CN/C(=N\N(C)C)CN(CC(=O)Nc2ccccc2C(=O)O)C1=O
13,–,–,–,CCO/N=C1/CN(CC(=O)Nc2cccc(C(=O)O)c2)C(=O)[C@H](Cc2cc(Cl)ccc2OC)CN1
30,–,–,–,COc1ccc(Cl)cc1C[C@@H]1CN/C(=N\N(C)C)CN(CC(=O)Nc2ccc(C(=O)O)cc2)C1=O
> 30,–,–,–,COc1ccc(Cl)cc1C[C@@H]1CNC(=O)CN(CC(=O)Nc2ccc(O)c(C(=O)O)c2)C1=O
> 30,–,–,–,COc1ccc(Cl)cc1C[C@H]1CN/C(=N\Oc2cc(F)cc(F)c2)CN(CC(=O)Nc2ccc(O)c(C(=O)O)c2)C1=O
5.4,–,–,–,COc1ccc(Cl)cc1C[C@@H]1CN/C(=N\Oc2c(F)cccc2F)CN(CC(=O)Nc2cccc(C(=O)O)c2)C1=O
